Each structure is given as a SMILES string. In brackets after ≈: the same amount, converted by molar mass.

The values that follow come from paper PMC10074041 (RSC Advances, 2023).

For the assay, the target named is α-glucosidase. As to the kind of experiment: pNPG hydrolysis, absorbance […] nm. It is filed as biochemical. The conditions noted are these: 1.25 mM pNPG, phosphate pH 6.8, 35 min preincubation at room temperature.

For `CC(=O)NC(CC(=O)O)c1ccccc1O` (stereo not shown) [L1, 3-Acetylamino-3(2-hydroxyphenyl) propanoic acid], the “IC50 (μg mL^-1) / In vitro α-glucosidase inhibitory activity” value was determined as 40.96 ± 0.96 µg/mL (≈ 183 µM).
